Test results as given in patent US9309247B2, “2-substituted imidazo[4,5-D]phenanthroline derivatives and their use in the treatment of cancer” (Aptose Biosciences Inc., priority 2013, dated 2016).

Experiments:
[1] = system: human renal cancer cells ACHN; assay: XTT cell proliferation assay, ACHN; format: cell-based; conditions: 5 days incubation, read-out: Antiproliferative activity, Kidney ACHN
Procedure: (§1) Exemplary compounds 1-8 were tested for anti-cancer activity in vitro using human renal cancer cells (ACHN and CAK-1), human pancreatic cells (BXPC3 and SU-86-86), human prostate cancer cell (DU14), human colon carcinoma cells (HT-29 and KM-12), leukemia cells (HL60), brain cancer/tumour cells (SK-A-AS, U87-MG), and human non-small cell lung cancer cells (H460). Compounds 1-8 are the specific embodiments of Formula (I) and Formula (IV) as described above in this application.
(§2) The cells were maintained as a monolayer in a growth medium; McCoy's 5A modified medium (Sigma, St. Louis, Mo.), supplemented with 2 mM L-glutamine (Gibco, Grand Island, N.Y.), 10% fetal bovine serum (FBS) (Multicell, WISENT Inc. St-Bruno, QC), antibiotic-antimycotic (Multicell), at 37° C. in a 5% CO2-humidified incubator. Cells were transferred onto 150 mm tissue culture plates and grown until sub-confluency (70-80%) prior to their use. The in vitro antiproliferative activity of compounds was evaluated by incubating the cells with varying concentrations of exemplary compounds as shown in Table 1 for 5 days. The efficacy of these compounds in this cell proliferation assay was measured based in the ability of live cells to reduce the tetrazolium salt XTT to orange colored compounds of formazan (XTT cell proliferation kit IT, Roche Applied Science, Montreal, QC).

[2] = system: human colon carcinoma cells KM12; assay: XTT cell proliferation assay, KM12; format: cell-based; conditions: 5 days incubation, read-out: Antiproliferative activity, Colon KM12
Procedure: as §1, §2

[3] = system: leukemia cells HL60; assay: XTT cell proliferation assay, HL60; format: cell-based, human; conditions: 5 days incubation, read-out: Antiproliferative activity, Leuk. HL60
Procedure: as §1, §2

[4] = system: human non-small cell lung cancer cells H460; assay: XTT cell proliferation assay, H460; format: cell-based; conditions: 5 days incubation, read-out: Antiproliferative activity, NSCLC H460
Procedure: as §1, §2

[5] = system: colon carcinoma KM-12 cells; assay: Colon carcinoma (KM-12) xenograft model; format: in vivo, CD-1 female nude mice; conditions: vs vehicle-treated control, FIG. 2
Procedure: (§3) The ability of compound 1 to inhibit colon tumour growth in vivo was tested as follows. CD-1 female nude mice (7 mice per treatment group, 6-7 weeks) were injected […] with human colon adenocarcinoma cells HT-29 cells (3×10^6 cells in 0.1 ml PBS). Treatment of the mice with vehicle or 50 mg/kg/d of […] was initiated 5 days post-inoculation (size of tumours=20-40 mm^3) for 7-day cycles of five days followed by a 2 day break for 5 weeks. The size of the tumours was measured over the course of the experiment using calipers, and the weight of the tumours was measured after the animals were sacrificed.
(§4) Similar tests were conducted with colon carcinoma KM-12 cells and colon carcinoma SW-620 cells.

[6] = system: colon carcinoma SW-620 cells; assay: Colon carcinoma (SW-620) xenograft model; format: in vivo, CD-1 female nude mice; conditions: vs vehicle-treated control, FIG. 3
Procedure: as §3, §4

IC50 [1]: 170 nM
IC50 [2]: 330 nM
IC50 [3]: 30 nM
IC50 [4]: 160 nM
SMILES: FC1(F)Oc2ccc(-c3nc4c5cccnc5c5ncccc5c4[nH]3)cc2O1 [Compound 1]
inhibition of tumour growth, as measured by tumour size [5]: able to inhibit tumour growth
inhibition of tumour growth, as measured by tumour size [6]: able to inhibit tumour growth
